In PMC11720742, “The Ivermectin Related Compound Moxidectin Can Target Apicomplexan Importin α and Limit Growth of Malarial Parasites” (Cells, 2025):
Several values for one entry are separate records, joined by “and”; a condition that tells them apart may be missing. Equal entries are not always repeated. Where two headings read alike, the source gives them in different places.

How the values were obtained:
P. falciparum 3D7 strain = assay: Drug susceptibility assay for P. falciparum using HRP2 sandwich ELISA; format: cell-based; settings: read-out: IC50 inhibition of P. falciparum parasites in culture
Method: The P. falciparum 3D7 strain was cultured and maintained according to the standard procedures with minor modifications. Cultures were maintained in RPMI 1640 (GibcoTM, Waltham, MA, USA) supplemented with 0.5% Albumax (GibcoTM), 50 mg/L hypoxanthine (Sigma-Aldrich), 2 gm/L D-glucose (Sigma-Aldrich), 2 gm/L sodium bicarbonate (Sigma-Aldrich), and 56 mg/L of gentamicin (Abbott, Chicago, IL, USA). Blood for parasite cultures was procured from volunteer blood donors with approval from the Institute Ethical Committee.
Samples from the continuous culture of P. falciparum were synchronised to obtain predominant rings of 0.25% parasitemia at 3% haematocrit. Compounds were made at a stock concentration of 10 mM in 100% DMSO, with the FDA-approved antimalarial dihydroartemisinin (a kind gift from IPCA Laboratories, Mumbai, India) as a control. Compound dilutions were made in RPMI 1640 to obtain the desired final test concentrations for the IC50 analysis.
The HRP2-sandwich ELISA assay was performed according to the standard protocol. Briefly, the PfHRP2 protein concentration in the culture wells, indicative of the level of parasitemia, is measured using a sandwich ELISA technique. Serial 2-fold dilutions of compounds (25 µL/well) were manually dispensed into standard 96-well microculture plates (Eppendorf). Subsequently, 200 µL of P. falciparum culture at 0.25% parasitemia (3% haematocrit) was added to each well. The plates were then incubated for 72 h at 37 °C in 5% CO2 in a humidified incubator. Plates were then subjected to freeze–thaw to achieve complete haemolysis. PfHRP2 levels in control and test samples were measured using a horseradish peroxidase enzyme-linked immunosorbent assay at 450 nm. GraphPad Prism 9.2.0 was used to perform non-linear regression analysis to determine the IC50 values.
(§1) Non-linear regression analysis was performed in GraphPad Prism 9.2.0 (San Diego, CA, USA) to fit four parameter dose–response curves using the formula: y = a + ((b − a)/(1 + 10^(Log(c) − x) × d)), where a and b are the minimum and maximum asymptotes respectively, c is the half-maximal inhibitory concentration value (IC50), and d is the slope at the steepest part of the curve (the Hill slope).

PfIMPα:TGS1-NLS-GFP = PfIMPα:TGS1-NLS-GFP (Plasmodium falciparum, UniProt Q8IAW0); assay: AlphaScreen binding assay, inhibition of PfIMPα binding to TGS1-NLS-GFP; design: species or system P. falciparum
PfIMPα:TGS1-NLS-GFP, sequence (Q8IAW0 entry or part of it): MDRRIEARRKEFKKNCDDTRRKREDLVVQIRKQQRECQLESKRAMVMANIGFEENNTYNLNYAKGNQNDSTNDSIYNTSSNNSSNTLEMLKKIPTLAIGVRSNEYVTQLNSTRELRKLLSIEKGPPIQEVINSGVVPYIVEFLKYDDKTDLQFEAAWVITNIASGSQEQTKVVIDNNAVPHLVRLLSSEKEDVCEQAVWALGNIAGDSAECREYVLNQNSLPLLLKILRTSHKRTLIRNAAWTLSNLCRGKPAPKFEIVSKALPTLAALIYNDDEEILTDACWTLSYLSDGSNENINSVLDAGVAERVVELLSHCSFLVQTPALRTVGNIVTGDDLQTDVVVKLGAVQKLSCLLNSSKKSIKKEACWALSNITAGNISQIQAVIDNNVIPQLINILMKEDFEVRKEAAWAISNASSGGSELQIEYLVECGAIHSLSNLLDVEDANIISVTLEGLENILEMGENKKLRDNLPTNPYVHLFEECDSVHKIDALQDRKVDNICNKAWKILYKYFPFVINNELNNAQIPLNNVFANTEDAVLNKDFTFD
TgIMPα:T-ag-NLS-GFP = TgIMPα:T-ag-NLS-GFP (Toxoplasma gondii, UniProt A0A125YID0); assay: AlphaScreen binding assay, inhibition of TgIMPα binding to T-ag-NLS-GFP
TgIMPα:T-ag-NLS-GFP, sequence (A0A125YID0 entry or part of it): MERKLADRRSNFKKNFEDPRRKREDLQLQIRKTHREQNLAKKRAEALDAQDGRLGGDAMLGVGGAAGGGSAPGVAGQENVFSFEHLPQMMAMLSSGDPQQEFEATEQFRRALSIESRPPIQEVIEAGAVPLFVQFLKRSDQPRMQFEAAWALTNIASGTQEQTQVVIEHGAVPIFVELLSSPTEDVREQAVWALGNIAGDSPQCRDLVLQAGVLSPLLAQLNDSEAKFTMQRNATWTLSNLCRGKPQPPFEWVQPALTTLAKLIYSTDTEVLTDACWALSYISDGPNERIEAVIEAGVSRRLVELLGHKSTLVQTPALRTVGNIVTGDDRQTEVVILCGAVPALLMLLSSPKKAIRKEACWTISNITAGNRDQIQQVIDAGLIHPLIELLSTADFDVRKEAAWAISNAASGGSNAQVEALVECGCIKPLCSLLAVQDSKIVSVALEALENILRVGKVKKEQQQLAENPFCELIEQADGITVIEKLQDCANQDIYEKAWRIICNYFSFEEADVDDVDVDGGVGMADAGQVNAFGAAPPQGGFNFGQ
Method: (§2) IC50 analysis was performed in quadruplicate using an AlphaScreen binding assay as previously, using bacterially expressed glutathione S-transferase (GST)-C-terminally tagged PfIMPα and TgIMPα proteins, as well as SV40 T-ag-NLS-GFP fusion protein and MmIMPβ1 [11, 41]. As previously, nickel-acceptor and streptavidin-donor beads were used. The AlphaScreen signal was measured on a Perkin Elmer plate reader, and IC50 plots drawn using GraphPad Prism 9.0.2 (San Diego, CA, USA).
as §1

MmΔIBBIMPα:T-ag-NLS-GFP = biological target: T1, MmΔIBBIMPα:T-ag-NLS-GFP (Mus musculus, UniProt P52293); assay: AlphaScreen binding assay, inhibition of MmΔIBBIMPα binding to T-ag-NLS-GFP
T1 construct: made in house

PfIMPα:MmIMPβ1 = PfIMPα:MmIMPβ1 (Plasmodium falciparum, UniProt Q8IAW0); assay: AlphaScreen binding assay, inhibition of PfIMPα binding to MmIMPβ1
PfIMPα:MmIMPβ1, sequence (Q8IAW0 entry or part of it): as the sequence (Q8IAW0 entry or part of it) above
PfIMPα:MmIMPβ1, sequence (P70168 whole entry, further chain): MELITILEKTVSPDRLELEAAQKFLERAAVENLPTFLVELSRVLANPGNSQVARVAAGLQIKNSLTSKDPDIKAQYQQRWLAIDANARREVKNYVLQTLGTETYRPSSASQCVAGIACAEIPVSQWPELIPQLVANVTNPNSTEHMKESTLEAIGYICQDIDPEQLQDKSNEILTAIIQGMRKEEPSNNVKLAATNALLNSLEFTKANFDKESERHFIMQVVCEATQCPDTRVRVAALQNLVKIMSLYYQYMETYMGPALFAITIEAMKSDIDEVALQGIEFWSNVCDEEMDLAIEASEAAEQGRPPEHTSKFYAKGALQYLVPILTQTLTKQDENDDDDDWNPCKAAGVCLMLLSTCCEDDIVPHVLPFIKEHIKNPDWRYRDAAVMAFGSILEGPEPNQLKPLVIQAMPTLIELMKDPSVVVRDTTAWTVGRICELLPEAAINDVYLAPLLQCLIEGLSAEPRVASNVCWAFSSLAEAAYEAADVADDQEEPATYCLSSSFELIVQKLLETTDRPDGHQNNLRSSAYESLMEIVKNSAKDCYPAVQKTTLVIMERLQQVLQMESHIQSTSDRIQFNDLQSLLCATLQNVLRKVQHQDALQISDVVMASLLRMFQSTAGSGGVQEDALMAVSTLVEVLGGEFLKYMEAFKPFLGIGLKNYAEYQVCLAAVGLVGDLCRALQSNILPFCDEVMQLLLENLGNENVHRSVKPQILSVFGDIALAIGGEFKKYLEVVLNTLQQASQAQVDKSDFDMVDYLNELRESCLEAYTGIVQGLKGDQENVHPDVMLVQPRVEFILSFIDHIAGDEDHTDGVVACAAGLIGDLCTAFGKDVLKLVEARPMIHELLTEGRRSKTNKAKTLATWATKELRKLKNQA
Method: as §2, §1

TgIMPα:MmIMPβ1 = TgIMPα:MmIMPβ1 (Toxoplasma gondii, UniProt A0A125YID0); assay: AlphaScreen binding assay, inhibition of TgIMPα binding to MmIMPβ1
TgIMPα:MmIMPβ1, sequence (P70168 whole entry): as the sequence (P70168 whole entry, further chain) above
TgIMPα:MmIMPβ1, sequence (A0A125YID0 entry or part of it): as the sequence (A0A125YID0 entry or part of it) above
Method: as §2, §1

MmIMPα:MmIMPβ1 = biological target: T2, MmIMPα:MmIMPβ1 (Mus musculus, UniProt P52293); assay: AlphaScreen binding assay, inhibition of MmIMPα binding to MmIMPβ1
T2 construct: GST; made in house

PfIMPα [1] = biological target: T3, PfIMPα (Plasmodium falciparum, UniProt Q8IAW0); assay: Intrinsic tryptophan fluorescence assay, PfIMPα; format: binding
T3 sequence (Q8IAW0 entry or part of it): as the sequence (Q8IAW0 entry or part of it) above
Method: (§3) Tryptophan fluorescence spectroscopy experiments were performed using a JASCO Fluorescence Spectrophotometer (JASCO, Hachioji, Tokyo, Japan) (0.5 mL quartz cuvette), with a fixed excitation wavelength of 295 nm and emission spectra collected between 310 and 400 nm with a slit width of 5 nm at 25 °C. Increasing concentrations of compounds in DMSO were incubated with the IMPαs (1 µM) in PBS for 5 min at room temperature prior to measurement. Data from three independent experiments were analysed using GraphPad Prism 10 (San Diego, CA, USA). Non-linear regression analysis was used to fit the one-site binding curves using the equation: y = Bmax * x/(Kd + x), where Bmax represents the maximum binding capacity and Kd is the dissociation constant, reflecting the concentration of ligand at which half-maximal binding is achieved.

TgIMPα [2] = biological target: T4, TgIMPα (Toxoplasma gondii, UniProt A0A125YID0); assay: Intrinsic tryptophan fluorescence assay, TgIMPα; format: binding
T4 sequence (A0A125YID0 entry or part of it): as the sequence (A0A125YID0 entry or part of it) above
Method: as §3

MmIMPα [3] = biological target: T5, MmIMPα (Mus musculus, UniProt P52293); assay: Intrinsic tryptophan fluorescence assay, MmIMPα; format: binding; settings: pooled, mean ± SEM (n = 3); IMPα 1 µM, 340 nm
T5 construct: GST; made in house
Method: as §3

[4] = test system: T. gondii RH strain expressing a luciferase reporter (RH-Fluc) tachyzoites; assay: T. gondii tachyzoite growth inhibition assay (luciferase) in HFF host cells; format: cell-based; settings: 48 h, luminescence, mean ± SD (n = 3)
Method: A T. gondii RH strain expressing a luciferase reporter (RH-Fluc) was used to assess the effect of the inhibitors on growth as described. T. gondii tachyzoites were maintained and cultured at 37 °C in 5% CO2 in a humidified incubator using primary human foreskin fibroblasts (HFF, ATCC) maintained in Dulbecco’s modified Eagle medium (DMEM) (GibcoTM, Waltham, MA, USA) supplemented with 3.7 g/L sodium bicarbonate and 2.38 g/L HEPES, 10% Cosmic Calf serum (HycloneTM, Logan, UT, USA) and 20 mg/L gentamicin [46, 47]. Growth inhibition was monitored by luminescence, where 100 μL of culture medium without or with inhibitors, followed by 100 µL of DMEM containing 5000 parasites, were added to confluent monolayers of HFF cells in 96-well culture dishes (Eppendorf, Hamburg, Germany). After 48 h, 150 µL of the culture medium was discarded from each well, and 10 µL lysis buffer was added to lyse the parasites, followed by 50 μL of 2× luciferase assay reagent (Promega, Madison, WI, USA). Luminescence was then measured directly for 10 s using a Varioskan™ LUX multimode microplate reader (Thermo Fisher Scientific, Waltham, MA, USA). […]

[5] = MTT assay for host cell cytotoxicity; format: cell-based; settings: human, HFF cells (freshly confluent), mean ± SD (n = 2)
Method: The MTT assay was used to measure the cytotoxicity of the small molecules against the HFF cells as described. Briefly, freshly confluent HFF cells were incubated for 48 h in a 96-well culture plate at 37 °C in a humidified incubator (5% CO2 atmosphere) in the presence of increasing concentrations of compounds (total volume 200 uL). A 10 μL quantity of MTT reagent (Sigma Aldrich) prepared in complete DMEM medium was then added to each well, and incubation continued for a further 3 h. 150 μL of the medium containing the MTT reagent was then removed from each well and replaced with 150 μL DMSO. Plates were then incubated room temperature in the dark for 20 min, after which absorbance for each well was measured at 570 nm. Data were analysed in GraphPad Prism 9 software.

PfIMPα [6] = biological target: T3, PfIMPα; assay: Far-UV CD spectroscopy, PfIMPα; format: binding; settings: 30 or 80 μM compound
Method: (§4) CD spectroscopy experiments were carried out to assess direct binding of moxidectin and ivermectin to different IMPαs as described. CD spectra at […] protein concentration were recorded from 200–260 nm using a Jasco CD spectrometer (Jasco, Easton, MD, USA) in the absence and presence of 30 or 80 μM ivermectin or moxidectin, with percentage α-helix content estimated from the ellipticity at 222 nm as described using the CD Multivariate secondary structure estimation analysis program.

TgIMPα [7] = biological target: T4, TgIMPα; assay: Far-UV CD spectroscopy, TgIMPα; format: binding; settings: 30 or 80 μM compound
Method: as §4

MmIMPα [8] = biological target: T5, MmIMPα; assay: Far-UV CD spectroscopy, MmIMPα; format: binding; settings: 30 or 80 μM compound
Method: as §4

[9] = Plasmodium falciparum, 3D7, 72 h, asexual stages, pooled, mean ± SD (n = 3)
[10] = Plasmodium falciparum, 3D7, 72 h, single typical experiment of Figure 5, duplicate
[11] = single experiment of Figure 1b, quadruplet wells
[12] = pooled, mean ± SEM (n = 3), MmIMPβ1 30 nM, IMPα 30 nM
[13] = single typical experiment of Figure 2, quadruplet wells
[14] = pooled, mean ± SEM (n = 3), IMPα 1 µM, 340 nm
[15] = single typical set of measurements, Figure 4b

**Q.** What does the source list for C[C@H]1[C@@H](O)O[C@@H]2O[C@@]3(C)CC[C@H]4[C@H](C)CC[C@@H]1[C@@]24OO3 [DHA, dihydroartemisinin]?
**A.** IC50 (P. falciparum 3D7 strain; [9]): 0.001 ± 0.0005 µM; IC50 (P. falciparum 3D7 strain; [10]): 0.0007 µM

**Q.** What does the source list for CO/N=C1\C[C@]2(C[C@@H]3C[C@@H](C/C=C(\C)C[C@@H](C)/C=C/C=C4\CO[C@@H]5[C@H](O)C(C)=C[C@@H](C(=O)O3)[C@]45O)O2)O[C@H](/C(C)=C/C(C)C)[C@H]1C [Moxidectin, moxidectin]?
**A.** IC50 (PfIMPα:TGS1-NLS-GFP; pooled, mean ± SEM (n = 3), IMPα 5 nM, NLS protein 30 nM): 4.8 ± 0.4 µM; IC50 (PfIMPα:TGS1-NLS-GFP; [11]): 4.6 µM; IC50 (TgIMPα:T-ag-NLS-GFP; pooled, mean ± SEM (n = 3), IMPα 5 nM, NLS protein 30 nM, read-out: IC50 inhibition of TgIMPα:Tag-NLS-GFP binding): 3.8 ± 0.8 µM; IC50 (TgIMPα:T-ag-NLS-GFP; [11]): 3.6 µM; IC50 (MmΔIBBIMPα:T-ag-NLS-GFP; pooled, mean ± SEM (n = 3), IMPα 5 nM, NLS protein 30 nM, read-out: IC50 inhibition of MmΔIBBIMPα:Tag-NLS-GFP binding): 3.6 ± 0.5 µM; IC50 (MmΔIBBIMPα:T-ag-NLS-GFP; [11]): 2.8 µM; IC50 (PfIMPα:MmIMPβ1; [12]): 3.4 ± 0.4 µM; IC50 (PfIMPα:MmIMPβ1; [13]): 3.8 µM; IC50 (TgIMPα:MmIMPβ1; [12]): 2.7 ± 0.2 µM; IC50 (TgIMPα:MmIMPβ1; [13]): 3.2 µM; IC50 (MmIMPα:MmIMPβ1; [12]): ~4 µM and 4 µM; IC50 (MmIMPα:MmIMPβ1; [13]): 4.7 µM; Kd (PfIMPα [1]; [14]): 7.8 ± 1.2 µM; Kd (PfIMPα [1]; [15]): 8.3 µM; Kd (TgIMPα [2]; [14]): 19 ± 2.2 µM; Kd (TgIMPα [2]; [15]): 19.3 µM; Kd (MmIMPα [3]): 4.1 ± 0.2 µM; IC50 (P. falciparum 3D7 strain; [9]): 1 µM; IC50 (P. falciparum 3D7 strain; [10]): 0.8 µM; IC50 (P. falciparum 3D7 strain; asexual stages, 72 h, pooled, mean ± SD (n = 3)): 0.9 ± 0.1 µM; IC50 [4]: 35 ± 3.1 µM; IC50 ([4]; Toxoplasma gondii): 30 to 35 µM; CC50 at 48 h [5]: ~10 µM; Effect on α-helicity of PfIMPα (CD spectra) (PfIMPα [6]): concentration-dependent reduction in α-helicity; Effect on α-helicity of TgIMPα (CD spectra) (TgIMPα [7]): concentration-dependent reduction in α-helicity; Effect on α-helicity of MmIMPα (CD spectra) (MmIMPα [8]): concentration-dependent reduction in α-helicity
